How the values were obtained:
Format in all cases: in vivo
[1] = system: Galium (catchweed bedstraw, Galium aparine); test: Test A postemergence; settings: Galium, post-emergence, 240 h, postemergence; for pest or weed control at 125 g/ha: 125 g ai/ha, visual injury vs untreated controls after approx. 10 d, 0 = no effect, 100 = complete control, read-out: Galium plant response rating (0 to 100 scale); for pest or weed control at 500 g/ha: 500 g ai/ha, 0 to 100 scale, 0 is no effect, 100 is complete control, read-out: Galium plant response rating
Outline: (§1)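 Treatment is preemergence as a directed soil spray after planting, or postemergence at the one- to two-leaf stage, with test chemical in a non-phytotoxic solvent mixture plus surfactant. Plants stay in the greenhouse about 10 d before visual injury scoring on a 0 to 100 scale versus untreated controls.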

Kochia (Kochia scoparia) = test: Test A postemergence; settings: Bassia scoparia, post-emergence, 240 h, postemergence; for pest or weed control at 125 g/ha: 125 g ai/ha, visual injury vs untreated controls after approx. 10 d, 0 = no effect, 100 = complete control, read-out: Kochia plant response rating (0 to 100 scale); for pest or weed control at 500 g/ha: 500 g ai/ha, 0 to 100 scale, 0 is no effect, 100 is complete control, read-out: Kochia plant response rating
Outline: as §1

[2] = system: barnyardgrass (Echinochloa crus-galli); test: Test A postemergence; settings: Echinochloa crus-galli, post-emergence, 240 h, postemergence; for pest or weed control at 125 g/ha: 125 g ai/ha, visual injury vs untreated controls after approx. 10 d, 0 = no effect, 100 = complete control, read-out: Barnyardgrass plant response rating (0 to 100 scale); for pest or weed control at 500 g/ha: 500 g ai/ha, 0 to 100 scale, 0 is no effect, 100 is complete control, read-out: Barnyardgrass plant response rating
Outline: as §1

[3] = system: blackgrass (Alopecurus myosuroides); test: Test A postemergence; settings: Alopecurus myosuroides, post-emergence, 240 h, postemergence; for pest or weed control at 125 g/ha: 125 g ai/ha, visual injury vs untreated controls after approx. 10 d, 0 = no effect, 100 = complete control, read-out: Blackgrass plant response rating (0 to 100 scale); for pest or weed control at 500 g/ha: 500 g ai/ha, 0 to 100 scale, 0 is no effect, 100 is complete control, read-out: Blackgrass plant response rating
Outline: as §1

corn (Zea mays) = test: Test A postemergence; settings: Zea mays, post-emergence, 240 h, postemergence; for plant injury at 125 g/ha: 125 g ai/ha, visual injury vs untreated controls after approx. 10 d, 0 = no effect, 100 = complete control, read-out: Corn plant response rating (0 to 100 scale); for plant injury at 500 g/ha: 500 g ai/ha, 0 to 100 scale, 0 is no effect, 100 is complete control, read-out: Corn plant response rating
Outline: as §1

[4] = system: giant foxtail (Setaria faberii); test: Test A postemergence; settings: Setaria faberi, post-emergence, 240 h, postemergence; for pest or weed control at 125 g/ha: 125 g ai/ha, visual injury vs untreated controls after approx. 10 d, 0 = no effect, 100 = complete control, read-out: Foxtail, Giant plant response rating (0 to 100 scale); for pest or weed control at 500 g/ha: 500 g ai/ha, 0 to 100 scale, 0 is no effect, 100 is complete control, read-out: Foxtail, Giant plant response rating
Outline: as §1

[5] = system: pigweed (Amaranthus retroflexus); test: Test A postemergence; settings: Amaranthus retroflexus, post-emergence, 240 h, postemergence; for pest or weed control at 125 g/ha: 125 g ai/ha, visual injury vs untreated controls after approx. 10 d, 0 = no effect, 100 = complete control, read-out: Pigweed plant response rating (0 to 100 scale); for pest or weed control at 500 g/ha: 500 g ai/ha, 0 to 100 scale, 0 is no effect, 100 is complete control, read-out: Pigweed plant response rating
Outline: as §1

[6] = system: ragweed (common ragweed, Ambrosia elatior); test: Test A postemergence; settings: Ambrosia artemisiifolia, post-emergence, 240 h, postemergence; for pest or weed control at 125 g/ha: 125 g ai/ha, visual injury vs untreated controls after approx. 10 d, 0 = no effect, 100 = complete control, read-out: Ragweed plant response rating (0 to 100 scale); for pest or weed control at 500 g/ha: 500 g ai/ha, 0 to 100 scale, 0 is no effect, 100 is complete control, read-out: Ragweed plant response rating
Outline: as §1

[7] = system: ryegrass, Italian (Italian ryegrass, Lolium multiflorum); test: Test A postemergence; settings: Lolium multiflorum, post-emergence, 240 h, postemergence; for pest or weed control at 125 g/ha: 125 g ai/ha, visual injury vs untreated controls after approx. 10 d, 0 = no effect, 100 = complete control, read-out: Ryegrass, Italian plant response rating (0 to 100 scale); for pest or weed control at 500 g/ha: 500 g ai/ha, 0 to 100 scale, 0 is no effect, 100 is complete control, read-out: Ryegrass, Italian plant response rating
Outline: as §1

[8] = system: wheat (Triticum aestivum); test: Test A postemergence; settings: Triticum aestivum, post-emergence, 240 h, postemergence; for plant injury at 125 g/ha: 125 g ai/ha, visual injury vs untreated controls after approx. 10 d, 0 = no effect, 100 = complete control, read-out: Wheat plant response rating (0 to 100 scale); for plant injury at 500 g/ha: 500 g ai/ha, 0 to 100 scale, 0 is no effect, 100 is complete control, read-out: Wheat plant response rating
Outline: as §1

[9] = system: barnyardgrass (Echinochloa crus-galli); test: Test B flooded paddy test; settings: Echinochloa crus-galli, 250 g ai/ha, Flood; 0 to 100 scale where 0 is no effect and 100 is complete control; read-out: Barnyardgrass plant response rating
Outline: (§2)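 Percent control, visually estimated after 13–15 d in the greenhouse on a 0–100 basis, compares treated pots with untreated ones; compound was put into paddy water 3 cm above the soil when plants had two leaves.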

[10] = system: ducksalad (Heteranthera limosa); test: Test B flooded paddy test; settings: Heteranthera limosa, 250 g ai/ha, Flood; 0 to 100 scale where 0 is no effect and 100 is complete control; read-out: Ducksalad plant response rating
Outline: as §2

rice (Oryra sativa) = test: Test B flooded paddy test; settings: Oryza sativa, 250 g ai/ha, Flood; 0 to 100 scale where 0 is no effect and 100 is complete control; read-out: Rice plant response rating
Outline: as §2

[11] = system: sedge, umbrella (small-flower umbrella sedge, Cyperus difformis); test: Test B flooded paddy test; settings: Cyperus difformis, 250 g ai/ha, Flood; 0 to 100 scale where 0 is no effect and 100 is complete control; read-out: Sedge, Umbrella plant response rating
Outline: as §2

Compound	pest or weed control at 125 g/ha [1] [%]	pest or weed control at 500 g/ha [1] [%]	pest or weed control at 125 g/ha (Kochia (Kochia scoparia)) [%]	pest or weed control at 500 g/ha (Kochia (Kochia scoparia)) [%]	pest or weed control at 125 g/ha [2] [%]	pest or weed control at 500 g/ha [2] [%]	pest or weed control at 125 g/ha [3] [%]	pest or weed control at 500 g/ha [3] [%]	plant injury at 125 g/ha (corn (Zea mays)) [%]	plant injury at 500 g/ha (corn (Zea mays)) [%]	pest or weed control at 125 g/ha [4] [%]	pest or weed control at 500 g/ha [4] [%]	pest or weed control at 125 g/ha [5] [%]	pest or weed control at 500 g/ha [5] [%]	pest or weed control at 125 g/ha [6] [%]	pest or weed control at 500 g/ha [6] [%]	pest or weed control at 125 g/ha [7] [%]	pest or weed control at 500 g/ha [7] [%]	plant injury at 125 g/ha [8] [%]	plant injury at 500 g/ha [8] [%]	further results
N#Cc1cc([C@H]2CNC(=O)[C@]2(O)C(=O)Nc2ccccc2F)ccc1F [Compound 1200]	0	0	0	0	0	0	0	0	0	0	0	0	0	0	0	0	0	0	0	0	pest or weed control at 250 g/ha [9]: 0%; pest or weed control at 250 g/ha [10]: 0%; pest or weed control at 250 g/ha (rice (Oryra sativa)): 0%; pest or weed control at 250 g/ha [11]: 0%
CSc1ccccc1NC(=O)[C@H]1C(=O)NC[C@@H]1c1ccc(F)c(C#N)c1 [Compound 1201]	30	50	40	70	70	100	0	0	0	0	70	90	20	60	0	30	0	0	0	0	pest or weed control at 250 g/ha [9]: 0%; pest or weed control at 250 g/ha [10]: 50%; pest or weed control at 250 g/ha (rice (Oryra sativa)): 0%; pest or weed control at 250 g/ha [11]: 0%
COc1cc(C(F)(F)F)ccc1[C@H]1CN(C)C(=O)[C@@H]1C(=O)Nc1cccc(F)c1C [Compound 1205]	20	40	0	0	40	50	0	20	70	80	80	80	0	0	0	0	0	30	30	40	pest or weed control at 250 g/ha [9]: 40%; pest or weed control at 250 g/ha [10]: 100%; pest or weed control at 250 g/ha (rice (Oryra sativa)): 20%; pest or weed control at 250 g/ha [11]: 0%
Cc1c(F)cccc1NC(=O)[C@H]1C(=O)N(C)C[C@@H]1c1ccc(F)c(Br)c1 [Compound 1211]	50	60	0	30	100	100	30	40	80	90	80	80	30	30	0	0	0	70	30	60	pest or weed control at 250 g/ha [9]: 85%; pest or weed control at 250 g/ha [10]: 100%; pest or weed control at 250 g/ha (rice (Oryra sativa)): 60%; pest or weed control at 250 g/ha [11]: 0%
Cc1c(F)cccc1NC(=O)[C@H]1C(=O)N(C)C[C@@H]1c1ccc(OC(F)F)cc1 [Compound 1213]	50	60	50	60	100	100	20	40	50	80	90	90	0	0	0	0	0	50	40	50	pest or weed control at 250 g/ha [9]: 70%; pest or weed control at 250 g/ha [10]: 100%; pest or weed control at 250 g/ha (rice (Oryra sativa)): 20%; pest or weed control at 250 g/ha [11]: 0%
